The source of these data is publication PMC6163600, “Antihypertensive Effects of Two Novel Angiotensin I-Converting Enzyme (ACE) Inhibitory Peptides from Gracilariopsis lemaneiformis (Rhodophyta) in Spontaneously Hypertensive Rats (SHRs)” (Marine Drugs, 2018).

Series [1] concerns spontaneously hypertensive rats (SHRs). Description: Antihypertensive effect on SHRs (tail-cuff SBP and DBP). The following applies: positive control, single oral dose 10 mg/kg body weight. The format is in vivo, rat. The protocol:
Spontaneously hypertensive rats (SHRs) (male, 10-week-old, 250–300 g body weight, specific, pathogen-free) were bought from Vital River Laboratory Animal Co., Ltd. (Beijing, China). Animals used in this study were maintained in accordance with the guidelines of the Institutional Research Council’s Guide for the Care and Use of Laboratory Animals. SHRs were housed under 12 h day/night cycle at 22 ± 2 °C and fed with tap water and a standard diet ad libitum. The SHRs were randomly separated into a positive group, control group, and two experiment groups. There were six SHRs in each group. Before the formal start of the test, SHRs had to adapt to measuring the environment in advance. Once the tail systolic blood pressure (SBP) rates were above 180 mmHg, the gavage administration could start.
Normal saline was the solvent to dissolve peptides and control reagent. Captopril (99% purity, Solarbio Technology Co., Ltd., Beijing, China) was the positive group. The same volume of normal saline was the control group. Tail-cuff method was performed for systolic blood pressure (SBP) and diastolic blood pressure (DBP) measurements with a non-invasive CODA device (Kent Scientific Co., Torrington, CT, USA). The blood pressure was measured in 0, 1, 2, 4, 6, 8 h after gavage administration. Measurements were repeated three times at each time point.

For a further series, the system named is ACE. On the set-up: method as in 6 sources, ref 31 = [31]; doi:10.1007/s00217-017-2886-2; 31. Cao D. Lv X. Xu X. Yu H. Sun X. Xu N. Purification and identification of a novel ACE inhibitory peptide from marine alga Gracilariopsis lemaneiformis protein hydrolysate Eur. Food Res. Technol. 20 ||| ref 32, 33 = [32]; doi:10.1016/j.procbio.2017.08.009; 32. Guo M. Chen X. Wu Y. Zhang L. Huang W. Yuan Y. Fang M. Xie J. Wei D. Angiotensin I-converting enzyme inhibitory peptides from Sipuncula ( Phascolosoma esculenta ): Purification, identification, mo || [33]; doi:10.1080/00021369.1987.10868415; 33. Maruyama S. Mitachi H. Awaya J. Kurono M. Tomizuka N. Suzuki H. Angiotensin I-Converting Enzyme Inhibitory Activity of the C-Terminal Hexapeptide of αs1-Casein Agric. Biol. Chem. Tokyo 1987 51 255 ||| ref 7 = [7]; 7. Fujita H. Yokoyama K. Yoshikawa M. Classification and antihypertensive activity of angiotensin I-converting enzyme inhibitory peptides derived from food proteins J. Food Sci. 2000 65 564 569 ||| ref 43 = [43]; PMID 24866326; doi:10.1021/jf501368a; 43. Duan X. Wu F. Li M. Yang N. Wu C. Jin Y. Yang J. Jin Z. Xu X. Naturally occurring angiotensin I-Converting enzyme inhibitory peptide from a fertilized egg and its inhibitory mechanism J. Agric. Fo ||| ref 44 = [44]; doi:10.1016/j.foodres.2012.11.002; 44. Liu X. Zhang M. Jia A. Zhang Y. Zhu H. Zhang C. Sun Z. Liu C. Purification and characterization of angiotensin I converting enzyme inhibitory peptides from jellyfish Rhopilema esculentum Food Res. ||| ... The conditions noted are these: cited from earlier work; for Inhibition pattern on ACE: peptides isolated from food stuffs, ref 37 (IFL), 38 (AVKVL), 39 (VELWP).

For series [2] the following is noted: cited from earlier work. The text has this:
Antihypertensive activity of peptides were further evaluated using spontaneously hypertensive rats (SHRs). […] Overall, drugs can exert better antihypertensive effects than hydrolysates and antihypertensive peptides derived from foods. […] Both FQIN [M(O)] CILR and TGAPCR decreased the SBP of SHRs. FQIN [M(O)] CILR and TGAPCR reduced the SBP of SHRs by 34 mmHg and 28 mmHg to the maximum extent, re ...

Series [3] has as its target T1, ACE (from rabbit lung) (Oryctolagus cuniculus, UniProt P12822).
T1 construct: ACE (from rabbit lung); purchased Sigma-Aldrich Co. (St. Louis, MO, USA); host or cells: rabbit lung tissue
T1 sequence (P12822 34-1310): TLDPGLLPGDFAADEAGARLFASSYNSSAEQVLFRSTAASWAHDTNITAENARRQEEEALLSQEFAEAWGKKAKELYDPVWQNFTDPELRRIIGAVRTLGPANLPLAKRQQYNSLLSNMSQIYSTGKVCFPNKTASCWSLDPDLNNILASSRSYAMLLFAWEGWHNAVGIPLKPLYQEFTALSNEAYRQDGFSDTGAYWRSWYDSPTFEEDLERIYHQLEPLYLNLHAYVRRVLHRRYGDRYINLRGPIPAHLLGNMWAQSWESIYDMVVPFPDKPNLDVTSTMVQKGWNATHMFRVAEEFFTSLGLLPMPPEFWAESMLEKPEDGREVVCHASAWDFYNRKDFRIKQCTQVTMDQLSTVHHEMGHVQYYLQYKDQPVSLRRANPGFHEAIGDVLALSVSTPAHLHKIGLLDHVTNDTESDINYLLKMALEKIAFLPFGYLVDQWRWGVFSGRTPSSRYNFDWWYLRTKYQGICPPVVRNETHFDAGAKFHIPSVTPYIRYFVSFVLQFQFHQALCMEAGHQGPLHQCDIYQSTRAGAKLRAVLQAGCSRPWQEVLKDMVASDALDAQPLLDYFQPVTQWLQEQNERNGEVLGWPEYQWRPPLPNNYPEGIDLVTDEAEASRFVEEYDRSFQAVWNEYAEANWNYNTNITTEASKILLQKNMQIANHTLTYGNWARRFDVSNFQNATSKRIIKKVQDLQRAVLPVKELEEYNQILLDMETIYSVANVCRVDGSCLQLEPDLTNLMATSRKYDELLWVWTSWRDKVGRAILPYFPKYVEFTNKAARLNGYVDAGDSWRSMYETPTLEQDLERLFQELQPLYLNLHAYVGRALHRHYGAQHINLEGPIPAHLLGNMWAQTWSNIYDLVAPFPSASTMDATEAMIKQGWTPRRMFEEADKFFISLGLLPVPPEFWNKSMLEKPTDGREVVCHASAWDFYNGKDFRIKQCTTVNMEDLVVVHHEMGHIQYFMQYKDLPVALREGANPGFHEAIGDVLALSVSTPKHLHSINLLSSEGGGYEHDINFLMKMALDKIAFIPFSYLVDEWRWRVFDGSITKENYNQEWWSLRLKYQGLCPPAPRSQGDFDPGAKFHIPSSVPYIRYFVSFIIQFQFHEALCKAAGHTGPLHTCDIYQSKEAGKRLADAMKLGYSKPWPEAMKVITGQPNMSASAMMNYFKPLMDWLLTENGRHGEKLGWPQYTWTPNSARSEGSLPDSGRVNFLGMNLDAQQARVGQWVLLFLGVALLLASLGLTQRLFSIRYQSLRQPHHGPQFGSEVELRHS
Description: ACE inhibition activity assay (HHL substrate, hippuric acid by RP-HPLC). Format: biochemical. The conditions noted are these: 0.1 U/mL ACE, 5 mM HHL, sodium borate buffer pH 8.3 with 0.3 M NaCl, 37 °C, 60 min; seven peptide concentrations; triplicate, mean ± SD. The protocol: (§1) ACE (from rabbit lung), hippuryl-histidyl-leucine (HHL), high-performance liquid chromatography (HPLC)-grade acetonitrile (ACN), trifluoroaceticacid (TFA) and porcine pancreatin (8× USP) were purchased from Sigma-Aldrich Co. (St. Louis, MO, USA). Trypsin (EC […], ≥250. N.F.U/mg solid), pepsin (EC 3.4.23.1, ≥250 U/mg solid), and captopril (>99% purity) were obtained from Solarbio (Beijing, China). All other chemical reagents were of analytical grade.
(§2) ACE inhibition activity was assayed according to Cushman and Cheung, with some modification. ACE was dissolved in sodium borate buffer (pH 8.3, containing 0.3 M sodium chloride) to 0.1 U/mL for the assay. Synthetic peptides were dissolved in distilled water to seven concentration levels. Then, 20 μL of a certain concentration of peptide was mixed with 10 μL ACE solution. The mixture was incubated at 37 °C for 5 min, and then 50 μL of 5 mM HHL (sodium borate buffer pH 8.3, containing 0.3 M sodium chloride) was added to the above mixture to start the reaction. […] The absorbance was detected at 228 nm. […] The activity of ACE inhibition was calculated as followed:ACE inhibitory activity (%) = (Acontrol − Ainhibitor)/Acontrol × 100 where Ainhibitor is the relative area of the hippuric acid (HA) peak obtained from the reaction of ACE and HHL with inhibitor. […]

Series [4] in a line: Observed water solubility of the peptide. Format: physicochemical. The following applies: when the concentration was lower than 10 mg/mL; solubility gradually decreased above 10 mg/mL. From the text:
The properties and stabilities of peptides are prerequisites for the preparation of "functional peptides". According to the information in the Innovagen server, FQIN [M(O)] CILR has poor water solubility. […] The hydrophobicity of FQIN [M(O)] CILR is related to the presence of hydrophobic amino acids, such as Phe, Leu, Ile, and Met. The hydrophobicity of FQIN [M(O)] CILR may facilitate the binding of peptides to the hydrophobic active center of ACE, in turn, produce better inhibitory activity.

Series [5] deals with T1, ACE (from rabbit lung). Description: Stability of peptides against ACE. The format is in vitro ADME. The conditions noted are these: 0.1 mg/mL peptide with 0.1 U/mL ACE, 37 °C, 24 h; read-out ACE inhibitory activity; mean ± SD, n = 3.
Description: as §1
The stability of peptides against ACE was assayed according to Salampessy. J and Fujita. H [48, 49]. 30 μL of peptides (0.1 mg/mL) reacted with 30 μL 0.1 U/mL ACE solution at 37 °C for 24 h. The ACE was then inactivated through boiling the solution for 10 min. Then, 20 μL of peptides were used to detect ACE inhibitory activity in the above method.

Series [6] deals with T1, ACE (from rabbit lung). In words: Determination of inhibitory pattern (Lineweaver-Burk plots). The format is biochemical. The conditions noted are these: X-axis intercept of the plot of Lineweaver-Burk slopes against peptide concentration. How it is done:
as §1, §2

Where [7] appears, read: peptide isolated from dried bonito, before pre-incubation with ACE, read-out: IC50 (ACE inhibition).
[8] abbreviates: reported C-terminal arginine ACE inhibitory peptides, read-out: IC50 (ACE inhibition).
Setting [9] is: peptides isolated from jellyfish, read-out: IC50 (ACE inhibition).

In general, IC50 refers to the midpoint of a concentration-inhibition curve. Usually Ki stands for the dissociation constant of the complex between target and ligand, obtained from inhibition or displacement.

Like-named read-outs stand apart in the source and are kept apart here. Non-standard residues stand in square brackets, D forms with d. Residues, ends and D or L forms follow the SMILES beside them. No end group written: not given here. Met(O) = CS(=O)CC[C@H](N)C(=O)O

As for `C[C@H](CS)C(=O)N1CCC[C@H]1C(=O)O` [captopril], the “Antihypertensive effect on SHRs (in words)” value in series [1] is “maximal antihypertensive effect”. Regarding AVKVL, the “Inhibition pattern on ACE” value with ACE is on record as “noncompetitive inhibition”. In the case of QVEY, in the series with ACE (peptide from trypsin hydrolyzate of G. lemaneiformis, read-out: IC50 (ACE inhibition)), the IC50 was 474 µM. Turning to FFGRCVSP, the IC50 was 0.4 µM in the series with ACE (setting [7]) and 4.6 µM with ACE (peptide isolated from dried bonito, hydrolyzed by ACE to fragments, read-out: IC50 after hydrolysis by ACE). With GNGSGYVSR, the IC50 in the series on ACE (setting [8]) is 29 µM. Turning to VELWP, in the series on ACE, the “Inhibition pattern on ACE” value is given as “noncompetitive inhibition”. For the molecule HLFGPPGKKDPV, the IC50 with ACE (peptide separated from fertilized eggs, read-out: IC50 (ACE inhibition)) is 125 µM. The “Greatest SBP drop” value in series [2] (oral dose of 10 mg/kg) is recorded as 30 mmHg. Take YIPIQYVLSR: the IC50 with ACE (setting [8]) is 132 µM. As to YASGR, the 50% inhibitory concentration (IC50) in the series on ACE (setting [8]) is 184 µM. Molecule `CC[C@H](C)[C@H](NC(=O)[C@H](CS)NC(=O)[C@H](CC[S+](C)[O-])NC(=O)[C@H](CC(N)=O)NC(=O)[C@@H](NC(=O)[C@H](CCC(N)=O)NC(=O)[C@@H](N)Cc1ccccc1)[C@@H](C)CC)C(=O)N[C@@H](CC(C)C)C(=O)N[C@@H](CCCNC(=N)N)C(=O)O` (stereo partly drawn) [FQIN [M(O)] CILR] (H-FQIN[Met(O)]CILR-OH) showed an IC50 against ACE (from rabbit lung) [3] of 9.64 ± 0.36 µM. Further, the “water solubility found in the authors' study” value in series [4] is recorded as “good water solubility”. For the same molecule, the “Stability against ACE hydrolysis (ACE inhibitory activity after incubation with ACE)” value on ACE (from rabbit lung) [5] was “stable ACE inhibitors but not substrates of ACE”. For the same molecule, affinity at ACE (from rabbit lung) [6] was put at a Ki of 710 ± 40 µM. Turning to LKPNM, the “IC50 after the pre-incubation with ACE, as fraction of the IC50 before” value with ACE (hydrolyzed into LKP and NM) is on record as 1/3. In addition, the IC50 in the series with ACE (setting [7]) is 2.4 µM. Consider TGAPCR [TGAPCR], for which it took 23.9 ± 0.82 µM to reach half-maximal inhibition at ACE (from rabbit lung) [3] (IC50). Moreover, the “Stability against ACE hydrolysis (ACE inhibitory activity after incubation with ACE)” value at ACE (from rabbit lung) [5] is on record as “stable ACE inhibitors but not substrates of ACE”. For the same molecule, the Ki at ACE (from rabbit lung) [6] was 860 ± 60 µM. As to QPGPT, in the series on ACE (setting [9]), the IC50 is 80.7 µM. For the same molecule, the “Reduction of SBP” value in series [2] is recorded as 13.75 mmHg.

For GDIGY, the IC50 with ACE (setting [9]) is 32.6 µM. Also, the “Reduction of SBP” value in series [2] is listed as 20.67 mmHg.
